Values of other authors, collected in patent US5331009A, “Pharmaceutical compositions for treating adrenoleukodystrophy” (Croda International plc, priority 1988, dated 1994).

Tested on: ALD patients

CCCCCCCC/C=C\CCCCCCCC(=O)O [oleic acid (C18:1), oleic acid]
therapeutic benefit of administration to ALD patients (Rizzo, Neurology 36 (1986) 357, Moser, Ann. Neurol. 21, 1987): generally therapeutically advantageous

CCCCCCCC/C=C\CCCCCCCC(=O)OCC(COC(=O)CCCCCCC/C=C\CCCCCCCC)OC(=O)CCCCCCC/C=C\CCCCCCCC [glyceryl trioleate]
C26:0 body levels (very long chain fatty acids omitted from diet, glyceryl trioleate used alone): reductions can occur
